Where “and” joins values, the source holds several entries; their conditions need not be identical. Equal values may be shown once. Inconclusive results and toxic doses are left out. Cut-off read from the data, not from the text of the source: active = T/C of 150% or more; inactive = T/C below 125%.
System: L1210 leukemia ip in BDF1 mice, survival T/C
Test: NCI In Vivo Anticancer Drug Screen. Data for tumor model L1210 Leukemia (intraperitoneal) in B6D2F1 (BDF1) mice
Conditions: endpoint: mean survival time, higher = longer survival
Method in brief: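 Transplantable tumor model; survival measured in treated vs vehicle control mice. Value = treated/control.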

[1] = dose: 100.0 mg/kg/injection, schedule: Q01DX009 (ip), vehicle: Klucel (hydroxypropylcellulose) (HPC)
[2] = dose: 200.0 mg/kg/injection, schedule: Q01DX009 (ip), vehicle: Klucel (hydroxypropylcellulose) (HPC)
[3] = dose: 400.0 mg/kg/injection, schedule: Q01DX009 (ip), vehicle: Klucel (hydroxypropylcellulose) (HPC)
[4] = dose: 100.0 mg/kg/injection, schedule: Q01DX001 (ip), vehicle: saline
[5] = dose: 200.0 mg/kg/injection, schedule: Q01DX001 (ip), vehicle: saline
[6] = dose: 400.0 mg/kg/injection, schedule: Q01DX001 (ip), vehicle: saline
[7] = dose: 50.0 mg/kg/injection, schedule: Q01DX009 (ip), vehicle: saline with Tween-80
[8] = dose: 100.0 mg/kg/injection, schedule: Q01DX009 (ip), vehicle: saline with Tween-80
[9] = dose: 200.0 mg/kg/injection, schedule: Q01DX009 (ip), vehicle: saline with Tween-80
[10] = dose: 100.0 mg/kg/injection, schedule: Q04DX003 (ip), vehicle: Klucel (hydroxypropylcellulose) (HPC)
[11] = dose: 200.0 mg/kg/injection, schedule: Q04DX003 (ip), vehicle: Klucel (hydroxypropylcellulose) (HPC)
[12] = dose: 400.0 mg/kg/injection, schedule: Q04DX003 (ip), vehicle: Klucel (hydroxypropylcellulose) (HPC)
[13] = dose: 50.0 mg/kg/injection, schedule: Q04DX003 (ip), vehicle: Klucel (hydroxypropylcellulose) (HPC)
[14] = dose: 12.5 mg/kg/injection, schedule: Q04DX003 (ip), vehicle: Klucel (hydroxypropylcellulose) (HPC)
[15] = dose: 25.0 mg/kg/injection, schedule: Q04DX003 (ip), vehicle: Klucel (hydroxypropylcellulose) (HPC)

Measured: T/C

CCc1ccc(NS(=O)(=O)c2ccc(OC)cc2)cc1
inactive: [1] 102 % of control | [2] 100 % of control | [3] 109 % of control

FC(F)(F)c1nc(=S)c2cn[nH]c2[nH]1
inactive: dose: 44.0 mg/kg/injection, schedule: Q01DX Z (ip), vehicle: methylcellulose (MC) 100 % of control | dose: 66.0 mg/kg/injection, schedule: Q01DX Z (ip), vehicle: methylcellulose (MC) 91 % of control | dose: 100.0 mg/kg/injection, schedule: Q01DX Z (ip), vehicle: methylcellulose (MC) 95 % of control

O=C(CCl)Oc1c(Cl)c(Cl)c(Cl)c(Cl)c1Cl
inactive: dose: 6.25 mg/kg/injection, schedule: Q04DX003 (ip), vehicle: alcohol 100 % of control | dose: 12.5 mg/kg/injection, schedule: Q04DX003 (ip), vehicle: alcohol 98 % of control | dose: 25.0 mg/kg/injection, schedule: Q04DX003 (ip), vehicle: alcohol 98 % of control | dose: 100.0 mg/kg/injection, schedule: Q04DX003 (ip), vehicle: alcohol 111 % of control

CC(C)(C)C(=O)/C=C/c1ccc(Cl)cc1
inactive: dose: 100.0 mg/kg/injection, schedule: Q04DX002 (ip), vehicle: gum acacia 93 % of control | dose: 200.0 mg/kg/injection, schedule: Q04DX002 (ip), vehicle: gum acacia 97 % of control | dose: 400.0 mg/kg/injection, schedule: Q04DX002 (ip), vehicle: gum acacia 104 % of control

COc1ccc(C)cc1CCC=O
inactive: [4] 97 % of control | [5] 101 % of control | [6] 95 % of control

CC12CCCC(O)C1(O)CC(C(=O)O)CC2 (stereo unspecified)
inactive: [7] 100 % of control | [8] 96 % of control | [9] 96 % of control

Nc1[nH]c(=O)[nH]c(=O)c1Br
inactive: [1] 97 % of control | [10] 100 % of control | [2] 103 % of control | [11] 100 % of control | [3] 101 % of control | [12] 97 % of control

CCOC(=O)CN(CCN(CC)CC)c1ccc([N+](=O)[O-])cc1[N+](=O)[O-]
inactive: dose: 100.0 mg/kg/injection, schedule: Q01DX001 (ip), vehicle: other 92 % of control | dose: 200.0 mg/kg/injection, schedule: Q01DX001 (ip), vehicle: other 87 % of control | dose: 400.0 mg/kg/injection, schedule: Q01DX001 (ip), vehicle: other 100 % of control

COc1cc(C2=N/C(=C\c3ccccc3O)C(=O)O2)cc(OC)c1OC
inactive: dose: 100.0 mg/kg/injection, schedule: Q04DX002 (ip), vehicle: saline with Tween-80 96 % of control | dose: 200.0 mg/kg/injection, schedule: Q04DX002 (ip), vehicle: saline with Tween-80 89 % of control | dose: 400.0 mg/kg/injection, schedule: Q04DX002 (ip), vehicle: saline with Tween-80 89 % of control

Cc1ccc(C(c2ccc(C)c(C)c2)C(O)C(O)C(O)C(O)CO)cc1C (stereo unspecified)
inactive: dose: 100.0 mg/kg/injection, schedule: Q01DX001 (ip), vehicle: Klucel (hydroxypropylcellulose) (HPC) 92 % of control | [4] 87 % of control | dose: 200.0 mg/kg/injection, schedule: Q01DX001 (ip), vehicle: Klucel (hydroxypropylcellulose) (HPC) 100 % of control | [5] 91 % of control | [6] 89 % of control

CC(=O)O[C@H]1[C@H]2O[C@]23[C@@H]2CC[C@@H]4C[C@@H](O)CC[C@]4(C)[C@H]2CC[C@]3(C)[C@H]1c1ccc(=O)oc1
inactive: dose: 3.75 mg/kg/injection, schedule: Q01DX009 (ip), vehicle: Klucel (hydroxypropylcellulose) (HPC) 110 % of control | dose: 5.0 mg/kg/injection, schedule: Q01DX001 (ip), vehicle: other 103 % of control | dose: 7.5 mg/kg/injection, schedule: Q01DX009 (ip), vehicle: Klucel (hydroxypropylcellulose) (HPC) 98 % of control | dose: 10.0 mg/kg/injection, schedule: Q01DX001 (ip), vehicle: other 103 % of control | dose: 15.0 mg/kg/injection, schedule: Q04DX003 (ip), vehicle: Klucel (hydroxypropylcellulose) (HPC) 98 % of control | dose: 20.0 mg/kg/injection, schedule: Q01DX001 (ip), vehicle: other 97 % of control

C=CCc1c[nH]c(=O)[nH]c1=O
inactive: [13] 100 % of control | [10] 108 % of control and 91 % of control | [11] 97 % of control and 100 % of control | [12] 90 % of control

COc1ccc(NC(=S)NC2CCCCC2)cc1
inactive: dose: 100.0 mg/kg/injection, schedule: Q04DX003 (ip), vehicle: other 94 % of control | dose: 200.0 mg/kg/injection, schedule: Q04DX003 (ip), vehicle: other 88 % of control | dose: 400.0 mg/kg/injection, schedule: Q04DX003 (ip), vehicle: other 90 % of control

Cc1ccc(CCS(=O)(=O)N=[N+]=[N-])cc1
inactive: [4] 101 % of control | [5] 97 % of control | [6] 101 % of control

COc1ccc(O)c2c(C(=O)c3ccccc3)c[nH]c12
inactive: dose: 25.0 mg/kg/injection, schedule: Q04DX002 (ip), vehicle: Klucel (hydroxypropylcellulose) (HPC) 87 % of control | dose: 50.0 mg/kg/injection, schedule: Q04DX002 (ip), vehicle: Klucel (hydroxypropylcellulose) (HPC) 95 % of control | dose: 100.0 mg/kg/injection, schedule: Q04DX002 (ip), vehicle: Klucel (hydroxypropylcellulose) (HPC) 95 % of control

C=C1C(=O)OC2C1CCC(C)C1CC(O)C(O)C12C (stereo unspecified)
inactive: [14] 96 % of control | [15] 101 % of control | [13] 101 % of control

C#CCN
inactive: [4] 103 % of control | dose: 100.0 mg/kg/injection, schedule: Q01DX009 (ip), vehicle: saline 94 % of control | [5] 102 % of control | dose: 200.0 mg/kg/injection, schedule: Q01DX009 (ip), vehicle: saline 96 % of control | [6] 102 % of control | dose: 400.0 mg/kg/injection, schedule: Q01DX009 (ip), vehicle: saline 93 % of control

CC(=O)Nc1ccc(/C=N\NC(=S)Nc2ccccc2)cc1
inactive: [1] 107 % of control | [2] 93 % of control | [3] 94 % of control

COc1ccc(OC)c(CCl)c1
inactive: dose: 75.0 mg/kg/injection, schedule: Q01DX009 (ip), vehicle: Klucel (hydroxypropylcellulose) (HPC) 97 % of control | dose: 150.0 mg/kg/injection, schedule: Q01DX009 (ip), vehicle: Klucel (hydroxypropylcellulose) (HPC) 103 % of control | dose: 300.0 mg/kg/injection, schedule: Q01DX009 (ip), vehicle: Klucel (hydroxypropylcellulose) (HPC) 91 % of control

CCCCCCCCCCCCCCCC(=O)N(CCCN)CCCCN(CCCN)C(=O)CCCCCCCCCCCCCCC
inactive: dose: 100.0 mg/kg/injection, schedule: Q01DX001 (ip), vehicle: saline with Tween-80 100 % of control | [8] 103 % of control | dose: 100.0 mg/kg/injection, schedule: Q04DX003 (ip), vehicle: saline with Tween-80 110 % of control | dose: 200.0 mg/kg/injection, schedule: Q01DX001 (ip), vehicle: saline with Tween-80 96 % of control | [9] 96 % of control | dose: 200.0 mg/kg/injection, schedule: Q04DX003 (ip), vehicle: saline with Tween-80 107 % of control | dose: 400.0 mg/kg/injection, schedule: Q01DX001 (ip), vehicle: saline with Tween-80 104 % of control | dose: 400.0 mg/kg/injection, schedule: Q01DX009 (ip), vehicle: saline with Tween-80 96 % of control | dose: 400.0 mg/kg/injection, schedule: Q04DX003 (ip), vehicle: saline with Tween-80 111 % of control

Clc1nc2ccccc2c2ccccc12
inactive: dose: 43.0 mg/kg/injection, schedule: Q01DX001 (ip), vehicle: carboxymethylcellulose (CMC) 96 % of control | dose: 85.0 mg/kg/injection, schedule: Q01DX001 (ip), vehicle: carboxymethylcellulose (CMC) 92 % of control | dose: 170.0 mg/kg/injection, schedule: Q01DX001 (ip), vehicle: carboxymethylcellulose (CMC) 92 % of control

COC(=O)C(O)c1ccc2c(c1)OCO2 (stereo unspecified)
inactive: dose: 100.0 mg/kg/injection, schedule: Q04DX003 (ip), vehicle: saline sonified 97 % of control | dose: 200.0 mg/kg/injection, schedule: Q04DX003 (ip), vehicle: saline sonified 97 % of control | dose: 400.0 mg/kg/injection, schedule: Q04DX003 (ip), vehicle: saline sonified 93 % of control

CC1C=CC(C(=O)Nc2ccc(Cl)c(Cl)c2)N1C (stereo unspecified)
inactive: [7] 94 % of control | [8] 91 % of control | [9] 93 % of control

CCN(CC)CCCC(C)Nc1ncnc(N)c1N (stereo unspecified)
inactive: [14] 93 % of control | [15] 91 % of control | [13] 102 % of control

From PubChem BioAssay AID248 (DTP/NCI, 2004)
